This note sets out measurements from patent US7314888B1, “Compounds and medicinal use thereof” (Toyama Chemical Co., Ltd., priority 1998, dated 2008).

Read-outs that look alike come from different tables or passages of the source.

Usually inhibition stands for the percentage by which the read-out fell short of the control.

Assay [1] has as its system type II collagen-induced arthritis. Nature of the assay: Type II collagen-induced arthritis in mice. Format: in vivo. The conditions noted are these: for inhibition at 100 mg/kg: Mus musculus, po, 100 mg/kg orally, 37th day. Here is the method:
Type II Collagen-Induced Arthritis in Mice The effect of the compound of Example 12 on the type II collagen-induced arthritis in mice was examined. As the animals, 8 weeks old male DBA/1J mice (Charles River Japan) were used. To 2 mg/mL solution of bovine type II collagen in 0.1 mol/L acetic acid (Kouken) was added an equivalent quantity of Freund complete adjuvant (Nacalai Tesque), and prepared an emulsion. 0.2 ml of the emulsion was subcutaneously injected into the tail root portion. On the 22nd day as counted from the day of first inoculation, the same treatment as above was repeated to induce arthritis. The compound was suspended in 0.5% methyl cellulose solution and administered orally at 100 mg/kg once every day from the 22nd day to the 36th day. To the control group (negative control group), a 0.5% methyl cellulose solution was administered similarly. Severity of the arthritis was evaluated in the following manner: score 0: no change score 1: swelling on one or two toes or slight swelling in the foreleg root or hindleg root only; score 2: swelling and rubor in more joints; score 3: extensive swelling over whole foreleg or hindleg; and total of the four legs was calculated. Taking the maximum score as 12, the arthritis score was calculated to evaluate the severity of arthritis. Regarding the destruction of joints and bones, X ray photographs of four paws were taken on the 37th day, and severity of destruction in the second to fifth articulationes interphalangeae, first to fifth articulationes metacarpophalangeae and metatarsophalangeae, and calcaneus was scored by 0 or 1 in accordance with presence or absence of destruction, and the severity of destruction in the carpus and tarsal was scored by 0 to 3. Total score for the four paws was taken as joint and bone destruction score, taking 50 points as maximum score.

For assay [2], the target named is T1, AP-1 complex (Fos/Jun peptide) (Homo sapiens, UniProt P01100+P05412).
T1 construct: made in house; host or cells: chemical peptide synthesis (no expression host)
T1 sequence (P01100 137-200 limits assumed): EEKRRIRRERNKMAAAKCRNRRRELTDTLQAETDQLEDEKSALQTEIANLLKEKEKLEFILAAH
T1 sequence (P05412 252-315 limits assumed): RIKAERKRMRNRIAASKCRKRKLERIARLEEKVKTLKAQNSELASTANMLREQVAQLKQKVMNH
Nature of the assay: Activities on AP-1 binding reaction to recognition sequence (ELISA) using Fos/Jun peptide. To be noted: read-out: Inhibition rate %. Here is the method:
(§1) Activities on AP-1 Binding Reaction to Recognition Sequence (ELISA)
On the other hand, Jun peptide and N-terminal biotinylated tetraglycine Fos peptide containing a DNA-binding site [Nature, Vol. 373, Pages 257-261, 1995] were synthesized and separately dissolved in tris buffer (20 mM tris-hydrochloride (pH 7.5), 50 mM potassium chloride, 1 mM ethylenediaminetetraacetic acid, 10 mM magnesium chloride, 1 mM dithiothreitol, 0.5M guanidine hydrochloride, 30% glycerol). Equimolar quantities of both the solutions were mixed together, and the mixture was used as an AP-1 complex (Fos/Jun peptide). The AP-1 complex was added to avidin-coating 96-well ELISA plate (10 pmol/well), washed, and then blocked with bovine serum albumin. The product was used for binding assay using AP-1 complex.
(§2) On the basis of the above-mentioned two coated AP-1, a digoxigenin-labeled double stranded oligonucleotide (22-mer) containing an AP-1 binding sequence ([…]) which has been synthesized elsewhere was reacted in the presence and absence of a sample at room temperature for 30-60 minutes in a binding reaction solution [Hepes buffer or 25 mM tris-hydrochloric acid (pH 7.9), 0.5 mM ethylenediaminetetraacetic acid, 0.05% Nonidet P-40, 10% glycerol]. After of the reaction, unbound labeled oligonucleotide washed out with Hepes buffer solution containing 0.05% of Tween-20. Then, an anti-digoxigenin antibody labeled with peroxidase was added, and reacted with the labeled oligonucleotide bound to AP-1. After washing out the excessive antibody with Hepes buffer containing 0.05% of Tween-20, the residue was reacted for a predetermined period of time in a 100 mM citrate buffer (pH 5.0) containing hydrogen peroxide by using o-phenylenediamine as a substrate. After adding-sulfuric acid solution to each well, absorbance (492 nm) was measured. Taking the absorbance in the absence of sample as 100%, inhibition rate of sample was calculated from the absorbance in the presence of sample.

Assay [3] concerns transcription factor AP-1 (nuclear extract protein prepared from HeLa cells). Nature of the assay: Activities on AP-1 binding reaction to recognition sequence (ELISA) using nuclear extract protein. To be noted: 100 μM; ELISA using nucleus-extracted protein. The protocol:
as §1
Nuclear extract protein containing transcription factor AP-1 prepared from HeLa cells was coated on 96-well ELISA plate (100 ng/well) in Hepes buffer (20 mM Hepes-potassium hydroxide (pH 7.9), 0,5 mM ethylenediamine-tetraacetic acid, 50 mM potassium chloride, 10% glycerol). After washing, a blocking treatment was carried out with bovine serum albumin, and then used for a binding assay using nuclear extract protein.
as §2

In assay [1] (DBA/1J mice, 100 mg/kg orally once every day from 22nd to 36th day, 37th day from first inoculation, maximum score 12), `CC(C)COc1ccc(C(=O)c2ccc(OCC(C)C)c(CCC(=O)O)c2)c(OCC(C)C)c1` [Example 12, 3-[5-(2,4-diisobutoxybenzoyl)-2-isobutoxyphenyl]propionic acid] returned an arthritis score of 3. The “joint and bone destruction score” value in assay [1] (DBA/1J mice, 100 mg/kg orally once every day from 22nd to 36th day, X ray on 37th day, maximum score 50) came out at 10. Besides, the inhibition at 100 mg/kg in assay [1] (read-out: inhibition rate as compared with control group (arthritis score)) amounted to 63%; in assay [1] (read-out: inhibition rate as compared with control group (joint and bone destruction score)), 62%. Further, the inhibition at 200 µM in assay [2] (200 μM) came to 24%. The inhibition at 500 µM in assay [2] (500 μM) stood at 90%.

Regarding “Ac-Cys^1-Gly-Gln-Leu-Asp-Leu-Ala-Asp-Gly-Cys^10-NH2 (Cys^1-Cys^10) (GQLDLADGC; not fully specified; N-acetyl Cys, C-amide, Cys1-Cys10 disulfide; printed: Gly-Gln-Leu-Asp-Leu-Ala-Asp-Gly-Cys) [Example 2]”, the Inhibition rate in assay [3] is 81%.
